The values below come from patent publication US11458112B2, “Compositions and methods for inducing defecation” (Dignify Therapeutics, LLC, priority 2019, dated 2022).

Data set [1] relates to anesthetized spinal intact rats. Nature of the data set: Rectal pressure (balloon catheter) after intrarectal capsaicin solution in anesthetized spinal intact rats. Type of data set: in vivo, rat. The protocol:
(§1) General: In vivo studies were performed in anesthetized, acute spinal cord injured (SCI) rats, anesthetized spinal intact rats, and awake chronic spinal cord injured rats. Adult female and male Sprague Dawley rats (Charles River, N.C.; 250-650 g) were housed at an AAALAC approved facility in cages (1-3/cage) with free access to water and food in a colony room that was maintained on a 12 hr/12 hr light/dark cycle.
(§2) For all rectal contractility studies, animals were anesthetized with urethane (1.0-1.4 g/kg subcutaneous injection). Surgical procedures were then performed with the addition of isoflurane anesthesia (0.05-1.5% in O2) as needed.
(§3) Rectal Contractility: Rectal pressures were measured via a latex balloon catheter (length 1.5-4 cm) inserted (˜4 cm) into the distal rectal region. The catheter was connected to a pressure monitoring system. […] Parameters measured included peak rectal pressure response, duration of time above baseline activity (in the 1st 5 min after drug administration), area under the curve (measured during the 1st 5 min after drug administration) and the number of contractile events after vehicle and drug administration.
(§4) Dosing: Intrarectal capsaicin was administered in a dose range of 0.1-2% wt/vol. Capsaicin was dissolved in 95% ethanol at 50-100 mg/mL and then diluted to 2-20 mg/mL with either saline or water to form a suspension and administered intrarectally as a solution using a micropipette, blunt tip tube (22 G) or as a small solution-soaked cotton ball (3-5 mm diameter). Vehicle doses were prepared using the same concentrations of ethanol in water or saline.
Methods: Capsaicin was administered to anesthetized spinal intact male and female rats (N=4 males and 1 female) instrumented for rectal pressure recording via a balloon catheter inserted into the rectum 2-4 cm from the anus. Capsaicin was administered as 0.2% solution (0.05-0.32 mL of a 2 mg/ml solution in 4.7 or 9.5% ethanol/saline) via a PE50 tube that was inserted into the rectum alongside the balloon catheter. For comparison, vehicle was administered to all rats using the same techniques.
Methods: Capsaicin was administered to an anesthetized spinal intact male rat instrumented for rectal pressure recording via a balloon catheter inserted into the rectum 2-4 cm from the anus. Capsaicin was administered as 0.2% solution (0.2%, 0.25 mL) in ethanol/saline via a PE50 tube that was inserted into the rectum alongside the balloon catheter. Vehicle was administered to all rats using the same techniques. Administration of capsaicin solution is indicated by filled arrow in FIG. 3.

Data set [2] deals with anesthetized acute T9-transected SCI rats. Nature of the data set: Rectal pressure after intrarectal capsaicin-soaked cotton ball in anesthetized acute SCI rats. Type of data set: in vivo, rat. The note with it: cotton ball soaked in 50 uL of 0.2% solution, 2 female rats. On the procedure: as §1
For the acute SCI model, animals were anesthetized with urethane (1.0-1.4 g/kg subcutaneous injection), the skin and muscle on the dorsal side at the level of the thoracic vertebrae were incised, and the spinal cord was carefully exposed by a laminectomy and transected at T8-T10 spinal level. Gelfoam® was placed at the incision site and the muscle and skin overlying the vertebrae were closed with wound clips. The spinal cord was transected at least 60 min before starting the experimental protocol.
as §2, §3
Dosing: Intrarectal capsaicin was administered in a dose range of 0.1-2% wt/vol. […]
Methods: Capsaicin was administered to 2 anesthetized acute T9-transected SCI female rats instrumented for rectal pressure recording via a balloon catheter inserted into the rectum 2-4 cm from the anus. […] Top and bottom traces in FIG. 4 were recorded from separate rats.

The subject of data set [3] is healthy subjects and subjects having irritable bowel syndrome (IBS). Conditions: concentrations of 0.01% and 0.1%, both groups; cited from earlier work.
The subject of data set [4] is conscious cSCI rats. Nature of the data set: Defecation in metabolism cages after intrarectal dosing in conscious chronic spinal cord injured rats. Type of data set: in vivo, rat. Conditions: for Number of fecal pellets / Total fecal weight: 0.1 mL intrarectal, within 10 min of dosing, N=6, mean + SD. On the procedure:
as §1
For chronic SCI model preparation, animals were anesthetized with a mixture of ketamine/xylazine (50-100 mg/kg and 5-10 mg/kg intraperitoneal, respectively), the skin and muscle on the dorsal side at the level of the thoracic vertebrae were incised, and the spinal cord was carefully exposed by a laminectomy and transected at either T3-T4 or T8-T10 spinal level. Gelfoam® was placed at the incision site and the muscle and skin overlying the vertebrae were closed with wound clips. The animal recovered from surgery for 7-10 weeks before being studied.
Defecation in awake animals was monitored in metabolism cages. Animals were habituated to handling and the metabolism cages on 2-4 occasions prior to dosing and were then randomized to a treatment arm. Rats were weighed and placed into metabolism cages for 10 min prior to intrarectal administration of vehicle or capsaicin. The number of fecal pellets and timing of events were recorded by trained personnel that were blinded to treatment. Fecal weight is weighed at 10 and 30 min post dosing. Animals were re-tested 2-3 days later in a cross over design.
as §4
Methods: Defecation in rats was monitored in metabolism cages. Chronic spinal cord injured (cSCI) rats were habituated to handling and the metabolism cages on 2-4 occasions before dosing, then randomized to the treatment arm. Rats were weighed and placed into metabolism cages for 10 min prior to receiving an intrarectal dose of vehicle or capsaicin. Since manual stimulation during intrarectal dosing in conscious rats can induce defecation, the tip of a small cotton swab was inserted into the anus prior to dose administration, to stimulate natural defecation of any fecal pellets that were located in the region of the anal sphincter. […] Once the anal sphincter had ceased contracting/relaxing (15-90 s) a fine catheter (22 G soft/flexible blunt tip catheter) was used to dose the vehicle or capsaicin, as this method produced little manual stimulation. Capsaicin was prepared as a 0.2 or 2% solution (2 or 20 mg/ml in diluted ethanol/water; vehicle corresponding to each dose concentration was 1.9 and 19% ethanol/water, respectively). Dose volumes were 0.1 mL and administered via the catheter inserted ˜1 inch through the anus into the rectum. The number of fecal pellets and timing of events were recorded by trained personnel blinded to the treatment. Fecal weight was recorded at 10 and 30 min post dosing. Animals were re-tested 2-3 days later in a cross over design.

Where [5] appears, read: 0.2% capsaicin solution intrarectal.
Setting [6] is: 0.2%, 0.25 mL intrarectal, one male rat (Example 3).

Marks after values point to notes of the source that are not given here.

In the case of `COc1cc(CNC(=O)CCCC/C=C/C(C)C)ccc1O` [Capsaicin, 8-methyl-N-vanillyl-6-nonenamide], the “response to repeat dosing” value in data set [1] (0.2% capsaicin repeated 20 min after the initial dose) is “evoked a similar response”. For the same compound, in data set [1] (setting [5]), the “duration of rectal pressure increase” value is recorded as 5 min and the “onset time of rectal pressure increase” value lay within 1 to 2 min. The “rats with transient rectal pressure increase” value in data set [1] (0.2% capsaicin solution intrarectal, 0.05-0.32 mL, N=4 males and 1 female) is on record as 5 of 5. For the same compound, in data set [1] (setting [6]), the “expulsion of rectal balloon catheter” value is given as “expelled from the rectum through the anus” and the “onset of increase in rectal pressure” value was not above 1 min. In addition, in data set [2], the “duration of rectal pressure increase” value is on record as less than 5 min, the “onset of rectal pressure increase” value is on record as less than 2 min and the “rats with capsaicin-induced rectal pressure increase” value is “both rats”. The “reported sensations following intrarectal administration” value in data set [3] was “discomfort and “an urge to defecate”, but not defecation”. For the same compound, in data set [4] (0.2 or 2% intrarectal), the “number and total weight of fecal pellets expelled compared to vehicle” value was “significantly increased”; the “time to completion of defecation” value is listed as not above 10 min; the time to defecation is recorded as not above 5 min. For the same compound, in data set [4] (Capsaicin 0.2%), the “Number of fecal pellets” value was 2.17 + 0.84 ^+ and the Total fecal weight is listed as 1.169 + 0.0489 g. Besides, in data set [4] (Capsaicin 2%), the “Number of fecal pellets” value is recorded as 2.00 + 0.68 ^+ and the Total fecal weight is reported as 1.265 + 0.414 * g. Also, the “defecation between 10-30 min post-dosing” value in data set [4] (any group) is listed as “No defecation was observed”.
